Laboratory results from US11571467B2, “Dodecafluoropentane emulsion as a stroke and ischemia therapy” (The Board of Trustees of the University of Arkansas, priority 2011, dated 2023).
Like-named read-outs stand apart in the source and are kept apart here.

Legend:
[1] = Pharmacokinetic study, DDFP blood levels by headspace GC-MS; type: in vivo, New Zealand White rabbits
Experimental: Pharmacokinetic study. In alert New Zealand White rabbits (5.1±0.5 kg; N=8), cannulae were placed in a vein of one ear and in an artery of the other ear. After intravenous injection of DDFPe (0.6 ml/kg in a 2% w/v emulsion) arterial blood samples were taken over a period of 4 to 7 h. The dose of DDFPe was repeated every 90 min in four animals. Samples were stored at −20° C. until they were analyzed for DDFP content by a headspace gas chromatograph-mass spectrometer (Varian TSQ).
Because infarct volumes were not normally distributed, ranks of infarct volume were analyzed with PROC GLM of SAS software (Kruskal-Wallis equivalent). Blood levels of DDFP were analyzed for exponential curve fit and exponential decay time constant using KaleidaGraph software v4.01 (2005). Values are given as mean±standard error.

[2] = in the liquid PFC; cited from earlier work
[3] = cited from earlier work

half-life ([1]; New Zealand White, rabbit, arterial whole blood, intravenous, FIG. 15, 0.6 ml/kg of 2% w/v emulsion, read-out: half-life in blood, representative rabbit) | clearance ([1]; New Zealand White, rabbit, arterial whole blood, single DDFPe dose of 0.6 ml/kg IV) | half-life ([1]; New Zealand White, rabbit, arterial whole blood, single DDFPe dose of 0.6 ml/kg IV, N=4, read-out: mean half-life in blood) | time for blood level to return to the baseline level after each dose ([1]; multiple doses at 90 min intervals) | time for blood levels to reach non-detectable levels ([1]; single DDFPe dose of 0.6 ml/kg IV) | accumulation in blood ([1]; up to five doses of 0.6 ml/kg at 90 min intervals) | SMILES | solubility of oxygen [2] | half-life in blood ([3]; humans, previous study) | half-life in the blood ([3]; intravenous administration) | DDFP cleared through the lungs / recovered from expired air ([3]; within 2 hours after single intravenous dose)
1.68 min | 78.5 ± 24.9 mL/min/kg | 1.45 ± 0.17 min | less than 30 min | ≤ 30 min | no sign of accumulation | FC(F)(F)C(F)(F)C(F)(F)C(F)(F)C(F)(F)F [DDFP, dodecafluoropentane] | 80 % v/v | 2.2 ± 1.2 min | 2 min | 99%
– | – | – | – | – | – | FC1(F)C(F)(F)C(F)(F)C2(F)C(F)(F)C(F)(F)C(F)(F)C(F)(F)C2(F)C1(F)F (stereo not drawn) [PFD, perfluorodecalin] | 42 % v/v | – | – | –
– | – | – | – | – | – | FC(F)(F)C(F)(F)C(F)(F)C(F)(F)C(F)(F)C(F)(F)C(F)(F)C(F)(F)Br [PFOB, perfluorooctylbromide] | 50 % v/v | – | – | –
